From ChEMBL document CHEMBL1121590, “Synthesis and enzymatic and inotropic activity of some new 8-substituted and 6,8-disubstituted derivatives of adenosine cyclic 3',5'-monophosphate” (J Med Chem, 1980) come the findings set out here.

A short description of assay [1]: Inhibition of cAMP phosphodiesterase preparation from rabbit lung at a substrate concentration of 0.14 uM.
The next assay concerns the target Phosphodiesterase 4 (Homo sapiens, UniProt P27815+Q08499+Q07343+Q08493). The settings on record: Oryctolagus cuniculus; Kidney.

Bounds are passed on as bounds.

Description for Phosphodiesterase 4: Susceptibility to be hydrolysed by a partially purified cAMP phosphodiesterase from rabbit kidney

On to `CCCSc1nc2c(N)ncnc2n1[C@@H]1O[C@@H]2COP(=O)(O)O[C@H]2[C@H]1O`, for which the I50 in assay [1] came to 37 µM. This molecule displayed a Hydrolysis at Phosphodiesterase 4 of less than 0.05.
On the same counts, the results for `O=c1[nH]c2c(Cl)ncnc2n1[C@@H]1O[C@@H]2COP(=O)(O)O[C@H]2[C@H]1O` are greater than 400 µM and less than 0.05.
On the same counts, the results for `O=P1(O)OC[C@H]2O[C@@H](n3c(SCc4ccccc4)nc4c(N5CCCCC5)ncnc43)[C@H](O)[C@@H]2O1` are 4.8 µM and less than 0.05.
Turning to `COc1ccc(Sc2nc3c(N)ncnc3n2[C@@H]2O[C@@H]3COP(=O)(O)O[C@H]3[C@H]2O)cc1`, in assay [1], the I50 turned out to be 48 µM. Further, the Hydrolysis at Phosphodiesterase 4 was less than 0.05.
Regarding `CCCCNc1ncnc2c1nc(SC)n2[C@@H]1O[C@@H]2COP(=O)(O)O[C@H]2[C@H]1O`, the I50 in assay [1] was determined as 53 µM. The same molecule had a Hydrolysis on Phosphodiesterase 4 of 0.26.
On the same counts, the results for `Nc1ncnc2c1nc(Cl)n2[C@@H]1O[C@@H]2COP(=O)(O)O[C@H]2[C@H]1O` [TOCLADESINE] are 59 µM and less than 0.05.
On the same counts, the results for `Nc1nc2c(Cl)ncnc2n1[C@@H]1O[C@@H]2COP(=O)(O)O[C@H]2[C@H]1O` are 200 µM and 0.74.
Take `CCCCCCNc1ncnc2c1nc(SCc1ccccc1)n2[C@@H]1O[C@@H]2COP(=O)(O)O[C@H]2[C@H]1O`: in assay [1], the I50 turned out to be 30 µM. This molecule displayed a Hydrolysis at Phosphodiesterase 4 of less than 0.05.
On the same counts, the results for `O=P1(O)OC[C@H]2O[C@@H](n3cnc4c(=S)[nH]cnc43)[C@H](O)[C@@H]2O1` are 53 µM and 1.1.
On the same counts, the results for `CC(C)Sc1nc2c(N)ncnc2n1[C@@H]1O[C@@H]2COP(=O)(O)O[C@H]2[C@H]1O` are 56 µM and less than 0.05.
For `C=CCSc1nc2c(N)ncnc2n1[C@@H]1O[C@@H]2COP(=O)(O)O[C@H]2[C@H]1O`, in assay [1], the I50 amounted to 29 µM. For the same molecule, the Hydrolysis on Phosphodiesterase 4 was less than 0.05.
As for `CCNc1ncnc2c1ncn2[C@@H]1O[C@@H]2COP(=O)(O)O[C@H]2[C@H]1O`, in assay [1], the I50 was 400 µM. The molecule further displayed a Hydrolysis at Phosphodiesterase 4 of 0.2.
On the same counts, the results for `Nc1ncnc2c1nc(SC1CCCCC1)n2[C@@H]1O[C@@H]2COP(=O)(O)O[C@H]2[C@H]1O` are 13 µM and less than 0.05.
On the same counts, the results for `CCSc1nc2c(N)ncnc2n1[C@@H]1O[C@@H]2COP(=O)(O)O[C@H]2[C@H]1O` are 33 µM and less than 0.05.
On the same counts, the results for `CCN(CC)c1ncnc2c1nc(N(CC)CC)n2[C@@H]1O[C@@H]2COP(=O)(O)O[C@H]2[C@H]1O` are 13 µM and less than 0.05.
Regarding `Cc1ccccc1CSc1nc2c(N)ncnc2n1[C@@H]1O[C@@H]2COP(=O)(O)O[C@H]2[C@H]1O`, the I50 in assay [1] is 33 µM. Moreover, on Phosphodiesterase 4, the Hydrolysis was less than 0.05.
On the same counts, the results for `CCCCNc1ncnc2c1ncn2[C@@H]1O[C@@H]2COP(=O)(O)O[C@H]2[C@H]1O` are 33 µM and 0.21.
For `CCN(CC)c1nc2c(Cl)ncnc2n1[C@@H]1O[C@@H]2COP(=O)(O)O[C@H]2[C@H]1O`, the I50 in assay [1] is 80 µM. The Hydrolysis at Phosphodiesterase 4 is 0.1.
As to `Nc1nc2c(=S)[nH]cnc2n1[C@@H]1O[C@@H]2COP(=O)(O)O[C@H]2[C@H]1O`, the I50 in assay [1] turned out to be 83 µM. The same molecule returned a Hydrolysis at Phosphodiesterase 4 of 0.3.
The molecule `COc1ccc(CSc2nc3c(N)ncnc3n2[C@@H]2O[C@@H]3COP(=O)(O)O[C@H]3[C@H]2O)cc1` came in with an I50 in assay [1] of 30 µM. Further, on Phosphodiesterase 4, the Hydrolysis is less than 0.05.
Turning to `CSc1ncnc2c1nc(SC)n2[C@@H]1O[C@@H]2COP(=O)(O)O[C@H]2[C@H]1O`, the I50 in assay [1] was 50 µM. The same molecule showed a Hydrolysis on Phosphodiesterase 4 of less than 0.05.
`Nc1ncnc2c1nc(O)n2[C@@H]1O[C@@H]2COP(=O)(O)O[C@H]2[C@H]1O` yielded an I50 in assay [1] of 150 µM. At Phosphodiesterase 4, this molecule had a Hydrolysis of less than 0.05.
Turning to `Nc1ncnc2c1nc(SCc1ccccc1)n2[C@@H]1O[C@@H]2COP(=O)(O)O[C@H]2[C@H]1O`, in assay [1], the I50 came to 53 µM. In addition, the Hydrolysis on Phosphodiesterase 4 is less than 0.05.
On the same counts, the results for `CSc1ncnc2c1ncn2[C@@H]1O[C@@H]2COP(=O)(O)O[C@H]2[C@H]1O` are 80 µM and 0.46.
On the same counts, the results for `CCN(CC)c1ncnc2c1nc(Sc1ccc(Cl)cc1)n2[C@@H]1O[C@@H]2COP(=O)(O)O[C@H]2[C@H]1O` are 3.5 µM and less than 0.05.
`Nc1ncnc2c1nc(N)n2[C@@H]1O[C@@H]2COP(=O)(O)O[C@H]2[C@H]1O` yielded an I50 in assay [1] of 83 µM. This molecule also came in with a Hydrolysis at Phosphodiesterase 4 of 0.8.
On the same counts, the results for `CCCCCSc1nc2c(N)ncnc2n1[C@@H]1O[C@@H]2COP(=O)(O)O[C@H]2[C@H]1O` are 15 µM and less than 0.05.
In turn, `Nc1ncnc2c1nc(SCC(=O)[O-])n2[C@@H]1O[C@@H]2COP(=O)(O)O[C@H]2[C@H]1O.[Na+]` displayed an I50 in assay [1] of 400 µM. The molecule also had a Hydrolysis at Phosphodiesterase 4 of less than 0.05.
On the same counts, the results for `Nc1ncnc2c1nc(SCc1ccc(F)cc1)n2[C@@H]1O[C@@H]2COP(=O)(O)O[C@H]2[C@H]1O` are 38 µM and less than 0.05.
Turning to `Nc1ncnc2c1nc(Sc1ccccc1)n2[C@@H]1O[C@@H]2COP(=O)(O)O[C@H]2[C@H]1O`, the I50 in assay [1] is 57 µM. The molecule also returned a Hydrolysis at Phosphodiesterase 4 of less than 0.05.
`CSc1nc2c(N)ncnc2n1[C@@H]1O[C@@H]2COP(=O)(O)O[C@H]2[C@H]1O` returned an I50 in assay [1] of 69 µM. At Phosphodiesterase 4, this molecule gave a Hydrolysis of less than 0.05.
On the same counts, the results for `O=P1(O)OC[C@H]2O[C@@H](n3c(Sc4ccc(Cl)cc4)nc4c(Nc5ccccc5)ncnc43)[C@H](O)[C@@H]2O1` are 36 µM and less than 0.05.
On the same counts, the results for `CNc1ncnc2c1ncn2[C@@H]1O[C@@H]2COP(=O)(O)O[C@H]2[C@H]1O` are 50 µM and 0.22.
On the same counts, the results for `CCN(CC)c1ncnc2c1ncn2[C@@H]1O[C@@H]2COP(=O)(O)O[C@H]2[C@H]1O` are 67 µM and 0.09.
In assay [1], `O=P1(O)OC[C@H]2O[C@@H](n3c(SCc4ccccc4)nc4c(SCc5ccccc5)ncnc43)[C@H](O)[C@@H]2O1` came in with an I50 of 4.6 µM. In addition, the Hydrolysis at Phosphodiesterase 4 is less than 0.05.
Take `Nc1ncnc2c1nc(Sc1ccc(Br)cc1)n2[C@@H]1O[C@@H]2COP(=O)(O)O[C@H]2[C@H]1O`: the I50 in assay [1] was found to be 240 µM. Moreover, the Hydrolysis at Phosphodiesterase 4 was less than 0.05.
On the same counts, the results for `O=P1(O)OC[C@H]2O[C@@H](n3c(Sc4ccc(Cl)cc4)nc4c(N5CCCCC5)ncnc43)[C@H](O)[C@@H]2O1` are 10 µM and less than 0.05.
On the same counts, the results for `O=P1(O)OC[C@H]2O[C@@H](n3c(Br)nc4c(NCc5ccccc5)ncnc43)[C@H](O)[C@@H]2O1` are 61 µM and less than 0.05.
As for `Nc1ncnc2c1nc(Br)n2[C@@H]1O[C@@H]2COP(=O)(O)O[C@H]2[C@H]1O`, the Hydrolysis on Phosphodiesterase 4 was less than 0.05.
For `O=P1(O)OC[C@H]2O[C@@H](n3c(SCc4ccccc4)nc4c(N5CCCC5)ncnc43)[C@H](O)[C@@H]2O1`, the I50 in assay [1] was 5 µM. The Hydrolysis on Phosphodiesterase 4 was less than 0.05.
On to `CCCCSc1nc2c(N)ncnc2n1[C@@H]1O[C@@H]2COP(=O)(O)O[C@H]2[C@H]1O`, for which, in assay [1], the I50 worked out at 25 µM. The Hydrolysis on Phosphodiesterase 4 is less than 0.05.
Take `O=P1(O)OC[C@H]2O[C@@H](n3cnc4c(NCc5ccccc5)ncnc43)[C@H](O)[C@@H]2O1`: in assay [1], the I50 was found to be 130 µM. Further, on Phosphodiesterase 4, the Hydrolysis came out at 0.3.
On the same counts, the results for `CC(C)CNc1ncnc2c1nc(Sc1ccc(Cl)cc1)n2[C@@H]1O[C@@H]2COP(=O)(O)O[C@H]2[C@H]1O` are 1.2 µM and less than 0.05.
For `Nc1ncnc2c1nc(Sc1ccc(Cl)cc1)n2[C@@H]1O[C@@H]2COP(=O)(O)O[C@H]2[C@H]1O`, on Phosphodiesterase 4, the Hydrolysis was less than 0.05.
For `O=P1(O)OC[C@H]2O[C@@H](n3c(SCc4ccccc4)nc4c(NCc5ccccc5)ncnc43)[C@H](O)[C@@H]2O1`, the I50 in assay [1] worked out at 29 µM. In addition, the Hydrolysis on Phosphodiesterase 4 is less than 0.05.
With `CCCCNc1ncnc2c1nc(Br)n2[C@@H]1O[C@@H]2COP(=O)(O)O[C@H]2[C@H]1O`, the Hydrolysis at Phosphodiesterase 4 was less than 0.05.
At Phosphodiesterase 4, `CCCN(CCC)c1ncnc2c1nc(SCc1ccccc1)n2[C@@H]1O[C@@H]2COP(=O)(O)O[C@H]2[C@H]1O` yielded a Hydrolysis of less than 0.05.
In the case of `Nc1ncnc2c1nc(SCc1ccc(Cl)cc1)n2[C@@H]1O[C@@H]2COP(=O)(O)O[C@H]2[C@H]1O`, in assay [1], the I50 stood at 11 µM. In addition, at Phosphodiesterase 4, the Hydrolysis is less than 0.05.
On the same counts, the results for `O=P1(O)OC[C@H]2O[C@@H](n3cnc4c(SCc5ccccc5)ncnc43)[C@H](O)[C@@H]2O1` are 25 µM and 0.54.
On the same counts, the results for `CSc1nc2c(NCc3ccccc3)ncnc2n1[C@@H]1O[C@@H]2COP(=O)(O)O[C@H]2[C@H]1O` are 17 µM and 0.19.
In turn, `CCCCN(C)c1ncnc2c1nc(SCc1ccccc1)n2[C@@H]1O[C@@H]2COP(=O)(O)O[C@H]2[C@H]1O` had a Hydrolysis at Phosphodiesterase 4 of less than 0.05.
Turning to `CCN(CC)c1ncnc2c1nc(Cl)n2[C@@H]1O[C@@H]2COP(=O)(O)O[C@H]2[C@H]1O`, in assay [1], the I50 amounted to 18 µM. The Hydrolysis on Phosphodiesterase 4 is 0.1.
On the same counts, the results for `CC(C)CCNc1ncnc2c1nc(SCc1ccccc1)n2[C@@H]1O[C@@H]2COP(=O)(O)O[C@H]2[C@H]1O` are 2 µM and less than 0.05.
On the same counts, the results for `Nc1ncnc2c1nc(SCc1cccc([N+](=O)[O-])c1)n2[C@@H]1O[C@@H]2COP(=O)(O)O[C@H]2[C@H]1O` are 25 µM and less than 0.05.
At Phosphodiesterase 4, `CCCCNc1ncnc2c1nc(Sc1ccc(Cl)cc1)n2[C@@H]1O[C@@H]2COP(=O)(O)O[C@H]2[C@H]1O` returned a Hydrolysis of less than 0.05.
`Cc1ccc(CSc2nc3c(N)ncnc3n2[C@@H]2O[C@@H]3COP(=O)(O)O[C@H]3[C@H]2O)cc1` came in with an I50 in assay [1] of 13 µM. For the same molecule, on Phosphodiesterase 4, the Hydrolysis is less than 0.05.
For the molecule `CCCCCNc1ncnc2c1nc(SCc1ccccc1)n2[C@@H]1O[C@@H]2COP(=O)(O)O[C@H]2[C@H]1O`, the I50 in assay [1] is 16 µM. Also, at Phosphodiesterase 4, the Hydrolysis is less than 0.05.
